Row | Structure (SMILES) | melting point [°C]
1 | O=C(Cc1ccc(Cl)cc1)NC1(C(=O)O)Cc2ccc(-c3ccc(Cl)cc3)cc2C1 (centres unmarked) [Example B127, 5-(4-Chlorophenyl)-2-{[(4-chlorophenyl)acetyl]amino}indan-2-carboxylic acid] | 251
2 | O=C(CN1CCN(C(c2ccc(F)cc2)c2ccc(F)cc2)CC1)NC1(C(=O)O)Cc2ccc(-c3ccc(Cl)cc3)cc2C1 (centres unmarked) [Example B128, 2-[({4-[bis(4-Fluorophenyl)methyl]piperazine-1-yl)acetyl)amino]-5-(4-chlorophenyl)indan-2-carboxylic acid] | 184
3 | Cc1c(C(=O)NC2(C(=O)O)Cc3ccc(-c4ccc(Cl)cc4)cc3C2)oc2cc(-c3ccc(Cl)cc3)ccc12 (centres unmarked) [Example B129, 5-(4-Chlorophenyl)-2-({[6-(4-chlorophenyl)-3-methyl-1-benzofuran-2-yl]carbonyl}amino)indan-2-carboxylic acid] | 257
4 | O=C(O)C1(NS(=O)(=O)Cc2ccc(F)cc2)Cc2ccc(-c3ccc(Cl)cc3)cc2C1 (centres unmarked) [Example B130, 5-(4-Chlorophenyl)-2-{[(4-fluorobenzyl)sulfonyl]amino}indan-2-carboxylic acid] | 210 to 213
5 | COc1ccc(-c2ccc3c(c2)CC(NC(=O)Cc2ccc(F)cc2)(C(=O)O)C3)cc1 (centres unmarked) [Example B131, 2-{[(4-Fluorophenyl)acetyl]amino}-5-(4-methoxyphenyl)indan-2-carboxylic acid] | 227
6 | O=C(CCc1ccc(F)cc1)NC1(C(=O)O)Cc2ccc(-c3ccc(Cl)cc3)cc2C1 (centres unmarked) [Example B132, 5-(4-Chlorophenyl)-2-{[3-(4-fluorophenyl)propanoyl]amino}indan-2-carboxylic acid] | 220
7 | O=C(NC1(C(=O)O)Cc2ccc(-c3ccc(Cl)cc3)cc2C1)c1ccc(F)cc1 (centres unmarked) [Example B133, 5-(4-Chlorophenyl)-2-[(4-fluorobenzoyl)amino]indan-2-carboxylic acid] | 251
8 | CS(=O)(=O)c1ccc(CC(=O)NC2(C(=O)O)Cc3ccc(-c4ccc(Cl)cc4)cc3C2)cc1 (centres unmarked) [Example B135, 5-(4-Chlorophenyl)-2-({[4-(methylsulfonyl)phenyl]acetyl}amino)indan-2-carboxylic acid] | 216
9 | O=C(Cc1ccccc1Cl)NC1(C(=O)O)Cc2ccc(-c3ccc(Cl)cc3)cc2C1 (centres unmarked) [Example B136, 5-(4-Chlorophenyl)-2-{[(2-chlorophenyl)acetyl]amino}indan-2-carboxylic acid] | 222
10 | O=C(NC1(C(=O)O)Cc2ccc(-c3ccc(Cl)cc3)cc2C1)c1ccc2ncsc2c1 (centres unmarked) [Example B137, 2-[(1,3-Benzothiazol-6-ylcarbonyl)amino]-5-(4-chlorophenyl)indan-2-carboxylic acid] | 210
11 | O=C(Cc1cccc(Cl)c1)NC1(C(=O)O)Cc2ccc(-c3ccc(Cl)cc3)cc2C1 (centres unmarked) [Example B138, 5-(4-Chlorophenyl)-2-{[(3-chlorophenyl)acetyl]amino}indan-2-carboxylic acid] | 234
12 | CC(C(=O)NC1(C(=O)O)Cc2ccc(-c3ccc(Cl)cc3)cc2C1)c1ccccc1 (centres unmarked) [Example B139, 5-(4-Chlorophenyl)-2-[(2-phenylpropanoyl)amino]indan-2-carboxylic acid] | 200 to 201
13 | O=C(Cc1ccc(NC(=O)c2ccc(F)cc2)cc1)NC1(C(=O)O)Cc2ccc(-c3ccc(Cl)cc3)cc2C1 (centres unmarked) [Example B140, 5-(4-Chlorophenyl)-2-[({4-[(4-fluorobenzoyl)amino]phenyl}acetyl)amino]indan-2-carboxylic acid] | 252 to 254
14 | O=C(Cc1ccc(OCc2ccccc2F)cc1)NC1(C(=O)O)Cc2ccc(-c3ccc(Cl)cc3)cc2C1 (centres unmarked) [Example B141, 5-(4-Chlorophenyl)-2-[({4-[(2-fluorobenzyl)oxy]phenyl}acetyl)amino]indan-2-carboxylic acid] | 232 to 233
15 | O=C(Cc1ccc(OCc2cccc(F)c2)cc1)NC1(C(=O)O)Cc2ccc(-c3ccc(Cl)cc3)cc2C1 (centres unmarked) [Example B142] | 209
16 | O=C(Cc1ccc(OCc2ccc(Cl)cc2)cc1)NC1(C(=O)O)Cc2ccc(-c3ccc(Cl)cc3)cc2C1 (centres unmarked) [Example B143, 2-[({4-[(4-Chlorobenzyl)oxy]phenyl}acetyl)amino]-5-(4-chlorophenyl)indan-2-carboxylic acid] | 230 to 232
17 | O=C(Cc1ccc(OCc2ccc(F)cc2Cl)cc1)NC1(C(=O)O)Cc2ccc(-c3ccc(Cl)cc3)cc2C1 (centres unmarked) [Example B144, 2-[({4-[(2-Chloro-4-fluorobenzyl)oxy]phenyl}acetyl)amino]-5-(4-chlorophenyl)indan-2-carboxylic acid] | 200 to 201

Now from value to compound:

Row | melting point [°C] | Structure (SMILES)
18 | 237 to 238 | O=C(Cc1ccc(OCc2ccc(C(F)(F)F)cc2)cc1)NC1(C(=O)O)Cc2ccc(-c3ccc(Cl)cc3)cc2C1 (centres unmarked) [Example B145, 5-(4-Chlorophenyl)-2-{[(4-{[4-(trifluoromethyl)benzyl]oxy}phenyl)acetyl]amino)indan-2-carboxylic acid]
19 | 200 to 202 | O=C(Cc1ccc(OCc2ccoc2)cc1)NC1(C(=O)O)Cc2ccc(-c3ccc(Cl)cc3)cc2C1 (centres unmarked) [Example B146, 5-(4-Chlorophenyl)-2-({[4-(3-furylmethoxy)phenyl]acetyl}amino)indan-2-carboxylic acid]
20 | 224 to 226 | O=C(Cc1ccc(OCc2ccsc2)cc1)NC1(C(=O)O)Cc2ccc(-c3ccc(Cl)cc3)cc2C1 (centres unmarked) [Example B147, 5-(4-Chlorophenyl)-2-({[4-(3-thienylmethoxy)phenyl]acetyl}amino)indan-2-carboxylic acid]
21 | 217 to 218 | O=C(O)CNC(=O)C1(NC(=O)Cc2ccc(OCc3ccccc3)cc2)Cc2ccc(-c3ccc(Cl)cc3)cc2C1 (centres unmarked) [Example B148, N-{[2-({[4-(Benzyloxy)phenyl]acetyl)amino)-5-(4-chlorophenyl)-2,3-dihydro-1H-inden-2-yl]carbonyl}glycine]
22 | 209 to 210 | O=C(O)CNC(=O)C1(NC(=O)Cc2ccc(OCc3ccc(F)cc3)cc2)Cc2ccc(-c3ccc(Cl)cc3)cc2C1 (centres unmarked) [Example B149, N-({5-(4-Chlorophenyl)-2-[({4-[(4-fluorobenzyl)oxy]phenyl}acetyl)amino]-2,3-dihydro-1H-inden-2-yl}carbonyl)glycine]
23 | 214 | O=C(O)CCNC(=O)C1(NC(=O)Cc2ccc(OCc3ccc(F)cc3)cc2)Cc2ccc(-c3ccc(Cl)cc3)cc2C1 (centres unmarked) [Example B150, N-({5-(4-Chlorophenyl)-2-[({4-[(4-fluorobenzyl)oxy]phenyl}acetyl)amino]-2,3-dihydro-1H-inden-2-yl)carbonyl)-O-alanine]
24 | 201 | O=C(Cc1ccc(OCc2cccs2)cc1)NC1(C(=O)O)Cc2ccc(-c3ccc(Cl)cc3)cc2C1 (centres unmarked) [Example B151, 5-(4-Chlorophenyl)-2-({[4-(2-thienylmethoxy)phenyl]acetyl}amino)indan-2-carboxylic acid]
25 | 209 to 210 | Cc1nc(COc2ccc(CC(=O)NC3(C(=O)O)Cc4ccc(-c5ccc(Cl)cc5)cc4C3)cc2)cs1 (centres unmarked) [Example B152]
26 | 204 to 205 | O=C(Cc1ccc(OCc2c(Cl)cccc2Cl)cc1)NC1(C(=O)O)Cc2ccc(-c3ccc(Cl)cc3)cc2C1 (centres unmarked) [Example B153]

Source: patent publication US20100130737A1, “Regulating Agent of GPR34 Receptor Function” (TAKEDA PHARMACEUTICAL COMPANY LIMITED, priority 2005, published 2010)
